Values after ≈ are worked out from the molar mass of the structure shown.
Tested on: A. baumannii ATCC19606 resistant mutant
Experiment: microbe, parasite or virus in culture
Assay type: cell-based

With CCOc1cc(Nc2ccc3nc(-c4ccc(F)cc4)cc(N)c3c2)nc(N)n1 [Compound 9a, N^6-(2-Amino-6-ethoxypyrimidin-4-yl)-2-(4-fluorophenyl)quinoline-4,6-diamine] the MIC (Acinetobacter baumannii, ATCC19606, read-out: MIC mutant) was 4 µg/mL (≈ 10.2 µM) and the “fold increase of MIC” value (mutant CH5080 vs parent A. baumannii ATCC19606) was 2.
